Source: patent US20040220164A1, “Triaza compound immunoregulatory agents” (priority 2001, published 2004)
Like-named read-outs stand apart in the source and are kept apart here.

How the values were obtained:
Type in all cases: cell-based
[1] = system: 6 different primary HIV-1 isolates; experiment: Activity against primary HIV-1 isolates in PBMCs; settings: read-out: activity against primary HIV-1 isolates, range
[2] = biological target: T1, CD4 (Homo sapiens, UniProt P01730); experiment: Intracellular CD4 staining; parameters: To study the effect of the CADA derivatives on surface CD4 antigen expression, MT-4 and SupT1 cells were incubated; endogenous in cells; host or cells: MT-4, SupT1, PBMC; settings: SupT1 cells, CADA 3.2 μM, 4 days; untreated 97.3%
Method: FIGS. 3A-3B. Intracellular CD4 staining in SupT1 cells after incubation with CADA hydrochloride (3.2 μM) for 4 days. (A) The intracellular CD4 expression of SupT1 cells cultured in medium alone and (B) treated with CADA for 4 days.
The effect of CADA on the intracellular presence of CD4 was also investigated. […] Similar results were also obtained in MT-4 cells and in PBMCs, and with two other anti-CD4 mAbs (OKT4A and OKT4).

[3] = system: HIV-1 strain IIIB; experiment: Anti-HIV-1 assay (p24 Ag ELISA); settings: Human immunodeficiency virus 1, IIIB, read-out: IC50 against HIV-1 IIIB
Method: (§1) The antiviral activity of CADA against HIV-1 and RHV-7 was investigated. PBMCs and […] cell-depleted PBMCs (removed with CD8 magnetic beads; Dynal AS, Oslo, Norway), previously activated with purified PHA (2 μg/ml) and rhIL-2 (1 ng/ml) for 3 days, were pelleted and exposed to HIV-1 (1 ng p24 Ag per 10^6 cells) for 2 hours at 370C. Then the cells were washed three times with warm medium and cultured in complete medium containing rhIL-2 (1 ng/ml) in the presence or absence of different concentrations of CADA hydrochloride. The anti-HIV-1 assays were also performed in MT-4 and SupT1 cells. CADA hydrochloride was diluted in the plates, then the MT-4 cells or SupT1 cells were added and finally the T-tropic HIV-1 strains. The supernatant was collected at day 5 for MT-4 cells, day 8 for SupT1 cells and day 12 for PBMCs, and stored at −20° C. and analyzed for HIV-1 core antigen by p24 Ag ELISA (NEN, Brussels, Belgium). The SupT1 cells were refreshed on day 4, and half of the medium and cells were replaced and fresh CADA-free medium was added. For the PBMCs, fresh culture medium was added at day 6 containing rhIL-2 (but no CADA). For the anti-HHV-7 assays in PBMCs, CADA hydrochloride was diluted in a plate, 2×10˜cells were added and then HHV-7 (KHR strain) was added in complete medium containing rhIL-2 (1 ng/ml). Fresh culture medium was added again at day 6 containing rhIL-2 (but no CADA). The same infection protocol was used for the SupT1 cells, but without rhIL-2. The SupT1 cells were refreshed on day 4 and day 8, half of the medium and the cells were replaced, and fresh medium without CADA was added. The HHV-7 antigen expression was monitored (at day 12) with a specific mAb to HHV-7 (RK-4) (Advanced Biotechnologies, Columbia, Md.) by flow cytometry, as described previously (Thang, Y., et al., Antiviral Res. 43:23-35 (1999)).

[4] = system: CCR5-using (R5) HIV-1 strain BaL; experiment: Anti-HIV-1 assay (p24 Ag ELISA); settings: Human immunodeficiency virus 1, BAL, PBMC; read-out: IC50 against HIV-1 BaL
Method: as §1

[5] = system: HIV-1 strain RF; experiment: Anti-HIV-1 assay (p24 Ag ELISA); settings: for IC50: read-out: IC50 against HIV-1 RF; for p24 viral core antigen in supernatant: MT-4, RF
Method: as §1
(§2) Table 4 presents the results for MT-4 cells pretreated with CADA for 1 day at 8.1 μM and then infected with the HIV-1 strain NL4.3 or RF in the presence or absence of CADA. […] As three CD4 binding events are needed to efficiently activate HIV-1 Env trimers (Layne, S. P., et al., Nature 346: 602-605 (1990)), multimeric CD4 binding is required for HIV infection, further confirming that receptor density plays a crucial role in the efficiency of viral infectivity (Platt, E. J., et al., J. Virol. 71: 883-890 (1997)). […] Primary HIV isolates seem to be much more dependent on the level of CD4 expression (Kabat; D., et al., J. Virol. 68:2570-2577 (1994)). […] Although CD4-independent viruses are described (Hofflian, T. L., et al., Proc. Natl. Acad. Sci. U.S.A. 96: 63 59-6364 (1999)), these are much more sensitive to neutralization by antibodies, which explains the rarity of CD4-independent wild-type HIV variants (Kolchinski, P., et al., J. Virol. 75: 204 1-2050 (2001)).

[6] = system: HIV-1 strain NL4.3; experiment: Anti-HIV-1 assay (p24 Ag ELISA); settings: for IC50: read-out: IC50 against HIV-1 NL4.3; for p24 viral core antigen in supernatant: MT-4, NL4.3
Method: as §1, §2

[7] = biological target: T1, CD4; experiment: Quantification of the CD4 receptor by antibody binding; parameters: endogenous in cells; the paragraph deals with MT-4, SupT1 cells and PBMCs; settings: after treatment with CADA
Method: as §2

[8] = Cytotoxic concentration (Example 2); settings: human, MT-4 cells; read-out: cytotoxic concentration (CC50)
[9] = system: HHV-7 (KHR strain); experiment: Anti-HHV-7 assay (HHV-7 antigen expression, flow cytometry, day 12)
Method: as §1

[10] = Human immunodeficiency virus 1, MT4, MT-4 cells
[11] = Human immunodeficiency virus 1, PBMC
[12] = Human immunodeficiency virus 1, SUP-T1, SupT1 cells
[13] = pre-treated (CADA 8.1 μM, 24 hours), CADA 0.13 μM after infection
[14] = pre-treated (CADA 8.1 μM, 24 hours), CADA 0.6 μM after infection
[15] = pre-treated (CADA 8.1 μM, 24 hours), CADA 3.2 μM after infection

SMILES: C=C1CN(S(=O)(=O)c2ccc(C)cc2)CCCN(Cc2ccccc2)CCCN(S(=O)(=O)c2ccc(C)cc2)C1 [CADA]
- IC50 [1]: 0.002 to 2.3 µM
- percentage of intracellular CD4 expression [2]: 1.3%
- IC50 ([3]; MT4, MT-4 cells): 0.3 µM
- IC50 ([3]; PBMC): 0.6 µM
- IC50 ([3]; SUP-T1, SupT1 cells): 0.9 µM
- IC50 [4]: 0.8 µM
- IC50 [5, 10]: 0.9 µM
- IC50 [5, 11]: 1.9 µM
- IC50 [5, 12]: 1.8 µM
- p24 viral core antigen in supernatant ([5]; cells pre-treated with CADA hydrochloride 8.1 μM 24 hours, medium without CADA after infection, untreated control 100002): 42853 pg/mL
- p24 viral core antigen in supernatant ([5]; not pre-treated, CADA 0.13 μM): 75118 pg/mL
- p24 viral core antigen in supernatant ([5]; not pre-treated, CADA 0.6 μM): 56139 pg/mL
- p24 viral core antigen in supernatant ([5]; not pre-treated, CADA 3.2 μM): <5 pg/mL
- p24 viral core antigen in supernatant [5, 13]: 35894 pg/mL
- p24 viral core antigen in supernatant [5, 14]: <5 pg/mL
- p24 viral core antigen in supernatant [5, 15]: <5 pg/mL
- IC50 [6, 10]: 0.5 µM
- IC50 [6, 11]: 1.6 µM
- IC50 [6, 12]: 3.1 µM
- p24 viral core antigen in supernatant ([6]; cells pre-treated with CADA hydrochloride 8.1 μM 24 hours, medium without CADA after infection, untreated control 158627): 34839 pg/mL
- p24 viral core antigen in supernatant ([6]; not pre-treated, CADA 0.13 μM): 127838 pg/mL
- p24 viral core antigen in supernatant ([6]; not pre-treated, CADA 0.6 μM): 63098 pg/mL
- p24 viral core antigen in supernatant ([6]; not pre-treated, CADA 3.2 μM): <5 pg/mL
- p24 viral core antigen in supernatant [6, 13]: 33785 pg/mL
- p24 viral core antigen in supernatant [6, 14]: <5 pg/mL
- p24 viral core antigen in supernatant [6, 15]: <5 pg/mL
- amount of CD4 Ab bound to the cells [7]: approximately 5,000 /cell
- decrease in bound antibody [7]: ~90%
- CC50 [8]: 134 µM
- IC50 ([9]; PBMC, CD8+ depleted PBMC, read-out: IC50 against HHV-7): 0.9 µM
- IC50 ([9]; PBMC, read-out: IC50 against HHV-7): 1.5 µM
- IC50 ([9]; SUP-T1, SupT1 cells, PBMCs and CD8+ T-cell depleted PBMCs, read-out: inhibitory concentration (IC50) for HHV-7, range over cell types): 0.3 to 1.5 µM
- IC50 ([9]; SUP-T1, SupT1 cells, read-out: IC50 against HHV-7): 0.3 µM
